According to patent US11548855B2, “Pyrazole amide compound and application thereof, and fungicide” (Shandong United Pesticide Industry Co. Ltd., priority 2017, dated 2023):

Key:
[1] = tested on: soybean rust; experiment: Field trial, soybean rust; format: in vivo, Phakopsora pacchyrhizi Sydow; details: sprayed 2 times
Procedure: III. The Soybean Rust Test Method:
(§1) Spray method: Stein and leaf spraying (Applicator: Xinkangda lithium battery electric sprayer).
Test crops: soybean (cultivars: Glycine max(L) Merr)
(§2) The test was carried out in Shenyang, the test field was loam with rich organic matters and normal management of fertilizer and water, and no other pesticide was applied during the test.
(§3) The arrangement of the test plot was random block permutation; the area of the test plot: 25 m^2; repeat times: 3 times; spray time and frequency: 2 times on Aug. 11, 2018 and Aug. 21, 2018 respectively. Spray dosage: each treatment was repeated 3 times, the total water consumption was 8 L. No other pesticide was applied during the test. […] 15-20 days after the second spray treatment, the control effect was investigated.
The incidence of disease spots in each plot was investigated by diagonal selecting 5 samples/plot and 20 plants/samples, 10 leaves/plant was surveyed.
(§4) The grading standard of crop disease was as follows:
(§5) Grade 0: no leaf-spot area;
(§6) Grade 1: the ratio of leaf-spot area to leaf area is less than 5%;
(§7) Grade 3: the ratio of leaf-spot area to leaf area is between 6-25%;
(§8) Grade 5: the ratio of leaf-spot area to leaf area is between 26-50%;
(§9) Grade 7: the ratio of leaf-spot area to leaf area is between 51-75%;
(§10) Grade 9: the ratio of leaf-spot area to leaf area is between 76-100%;
(§11) According to the relevant content of the “Guidelines for the field efficacy trials of pesticides of the People's Republic of China (PRC)”, the disease index was calculated according to the grading standard, and the control effect in a unit of % was calculated based on the disease index, and the test data of significance analysis was performed by using DPS evaluation system (DMRT).

[2] = tested on: corn rust (Puccinia sorghi); experiment: Greenhouse pot test, corn rust; format: in vivo
Procedure: (§12) Test method: each of the test compounds in Table 1 was dispensed to 5 wt % emulsifiable concentrate (hereinafter referred to as 5% EC). The greenhouse pot test was used in each experiment, and the effective concentrations of each compound were illustrated in Table 1.
Corn rust: two-three leaf stage potted corn seedling with uniform growth was selected and made foliar spray treatment with 5% EC, the blank control sprayed with clean water was additionally arranged, three replicates were carried out. After 24 h, the leaves of the host plants were inoculated with sporangial suspensions of the fungi corn rust (Puccinia sorghi), the plants were stored in humidity chamber (temperature: lighting 25° C., dark 20° C., relative humidity 95-100%) and then transferred to greenhouse (25±1° C.) 24 h after infection. After 7 days, the screening results were investigated according to the disease incidence condition of blank control.
(§13) The investigation method: “Guidelines for the field efficacy trials of pesticides” was adopted as the grading standard, and the control effect in a unit of % was calculated based on the disease index. Disease index=Σ(number of diseased leaves at each grade×relative grade value)×100/(total number of leaves×9); Control effect (%)=(disease index of control−disease index of treated)×100/disease index of control;
(§14) The compounds provided by the present disclosure and some control compounds were tested by the same methods in the Test example 1, except that the effective concentrations of the compounds in this Test example are shown in Table 2.

[3] = tested on: rice sheath blight fungi (Rhizoctonia solami); experiment: Greenhouse pot test, rice sheath blight; format: in vivo
Procedure: as §14
In addition, the test method for rice sheath blight as following steps:
The potted rice seedling with uniform growth was selected, and dried in the shade for 24 h after spray treatment, then inoculated 3 blocks of 0.25 cm^2 rice sheath blight fungi (Rhizoctonia solami) at the base of seedling by clamp inoculation bacterium block method. The test materials inoculated were moved into greenhouse (temperature: lighting 28° C., dark 25° C., relative humidity 95%), after 7 days, investigate 5 leaves of per block treatment, the grading investigation was carried out according to the disease incidence condition of sheaths and leaves of rice, “Guidelines for the field efficacy trials of pesticides” was adopted as the grading standard, the disease index was calculated according to the grading standard, and the control effect in a unit of % was calculated according to disease index.

[4] = tested on: cucumber powdery mildew; experiment: Greenhouse pot test, cucumber powdery mildew; format: in vivo; details: greenhouse pot
Procedure: as §12
Cucumber powdery mildew: cucumber seedling in a true leaf period with uniform growth was selected, and dried in the shade for 24 h after spray treatment. Fresh cucumber powdery mildew spores on the cucumber leaves were collected and washed, and filtered through a double gauze to prepare a spores suspension with concentration of about 100,000/mL, then spray inoculation was applied. The test materials inoculated were moved into a greenhouse (lighting 21-23° C.), after 8 days, the grading investigation was carried out according to the disease incidence condition of blank control, and the control effect in a unit of % was calculated according to disease index.
as §13, §14

[5] = tested on: soybean rust (Phakopsora pacchyrhizi Sydow); experiment: Greenhouse pot test, soybean rust; format: in vivo
Procedure: as §12
Soybean rust: two-leaf stage potted soybean seedling with uniform growth was selected and made foliar spray treatment with 5% EC, the blank control sprayed with clean water was additionally arranged, three replicates were carried out. After 24 h, the leaves of the host plants were inoculated with sporangial suspensions of the fungi soybean rust (Phakopsora pacchyrhizi Sydow), the plants were stored in humidity chamber (temperature 20-25° C., relative humidity>95%) and then transferred to greenhouse (25±1° C.) 8-16 h after infection. After 7 days, the screening results were investigated according to the disease incidence condition of blank control.
as §13, §14

[6] = tested on: wheat powdery mildew (Erysiphe graminis); experiment: Greenhouse pot test, wheat powdery mildew; format: in vivo
Source text: as §12
Wheat powdery mildew: two-leaf stage potted wheat seedling with uniform growth was selected and made foliar spray treatment with 5% EC, the blank control sprayed with clean water was additionally arranged, three replicates were carried out. After 24 h, the leaves of the host plants were inoculated by shake-down method with sporangial suspensions of the fungi wheat powdery mildew (Erysiphe graminis), the plants were stored in a greenhouse (25±1° C.). After 7 days, the screening results were investigated according to the disease incidence condition of blank control.
as §13, §14

[7] = tested on: wheat powdery mildew; experiment: Field trial, wheat powdery mildew; format: in vivo, Erysiphe graminis; details: 100 mg/L, sprayed once
Procedure: II. The Wheat Powdery Mildew Test Method:
as §1
Test crops: wheat (cultivars: Liaochun 10)
as §2
The arrangement of the test plot was random block permutation; the area of the test plot: 15 m^2; repeat times: 3 times; spray time and frequency: Sep. 17, 2018, once. Spray dosage: each treatment was repeated 3 times, the total water consumption was 8 L. No other pesticide was applied during the test.
The incidence of disease spots in each plot was investigated by diagonal selecting 4 samples/plot and 20 plants/samples, and the first leaf below the flag leaf of each plant was investigated.
as §4, §5, §6, §7, §8, §9, §10, §11

[8] = tested on: cucumber powdery mildew; experiment: Field trial, cucumber powdery mildew; format: in vivo; details: 100 mg/L, sprayed twice
Procedure: I. Cucumber Powdery Mildew Test Method:
Spray method: Stein and leaf spray (Applicator: Xinkangda lithium battery electric sprayer).
Test crop: cucumber (cultivars: Tianjiao7)
as §2
as §3, with “15” for “25”, “period between Sep. 28,” for “2 times on Aug. 11,”, “Oct. 11, 2018, twice.” for “Aug. 21, 2018 respectively.”, “second” for “second spray”, “incidence of disease spots in each plot” for “control effect”
The incidence of disease spots in each plot was investigated by randomly selecting 4 samples/plot and 2 plants/samples, all leaves/plant, the incidence of the whole plant was recorded by counting the number of disease leaves and determining the incidence grade.
Grading standard (in units of leaves):
as §5, §6
Grade 3: the ratio of leaf-spot area to leaf area is between 6-10%;
Grade 5: the ratio of leaf-spot area to leaf area is between 11-20%;
Grade 7: the ratio of leaf-spot area to leaf area is between 21-40%;
Grade 9: the ratio of leaf-spot area to leaf area is more than 40%;
as §11

[9] = tested on: wheat powdery mildew; details: cited from earlier work
[10] = tested on: wheat powdery mildew; details: cited from earlier work; remark: listed apart in the source

Cn1cc(C(=O)Nc2cccc3c2[C@@H]2CC[C@H]3C2=C(Cl)Cl)c(C(F)F)n1 (racemic) [Benzovindiflupyr]
Control effect (%) ([1]; dosage 50 mg/L): 91.46%
Control effect (%) ([1]; dosage 75 mg/L): 94.51%
Control effect (%) ([1]; dosage 100 mg/L): 97.15%
Control effect (%) Corn rust ([2]; 1.5625 mg/L): 95%
Control effect (%) Corn rust ([2]; 3.1250 mg/L): 98%
Control effect (%) Rice sheath blight ([3]; 0.5 mg/L): 30%
Control effect (%) Rice sheath blight ([3]; 1 mg/L): 40%
Control effect (%) Rice sheath blight ([3]; 1.5625 mg/L): 55%
Control effect (%) Rice sheath blight ([3]; 3.1250 mg/L): 65%
Control effect (%) Cucumber powdery mildew ([4]; 1.5625 mg/L): 20%
Control effect (%) Cucumber powdery mildew ([4]; 6.25 mg/L): 80%
Control effect (%) Cucumber powdery mildew ([4]; 25 mg/L): 100%
Control effect (%) Cucumber powdery mildew ([4]; 100 mg/L): 100%
Control effect (%) Soybean rust ([5]; 0.5 mg/L): 95%
Control effect (%) Soybean rust ([5]; 1 mg/L): 98%
Control effect (%) Soybean rust ([5]; 1.5625 mg/L): 100%
Control effect (%) Soybean rust ([5]; 3.1250 mg/L): 100%
Control effect (%) Wheat powdery mildew ([6]; 1.5625 mg/L): 50%
Control effect (%) Wheat powdery mildew ([6]; 3.1250 mg/L): 70%
Control effect (%) Wheat powdery mildew [7]: 95%

Cn1cc(C(=O)Nc2ccccc2Oc2ccc(C(F)(F)F)cc2I)c(C(F)F)n1 [Compound 4]
Control effect (%) ([1]; dosage 50 mg/L): 80.14%
Control effect (%) ([1]; dosage 75 mg/L): 85.62%
Control effect (%) ([1]; dosage 100 mg/L): 93.11%
pest or weed control at 1.5625 µg/mL ([2]; Puccinia sorghi, 168 h, 1.5625 mg/L, read-out: Control effect (%) Corn rust): 50%
pest or weed control at 3.125 µg/mL ([2]; Puccinia sorghi, 168 h, 3.1250 mg/L, read-out: Control effect (%) Corn rust): 90%
pest or weed control at 6.25 µg/mL ([2]; Puccinia sorghi, 168 h, 6.25 mg/L, read-out: Control effect (%) Corn rust): 98%
pest or weed control at 25 µg/mL ([2]; Puccinia sorghi, 168 h, 25 mg/L, read-out: Control effect (%) Corn rust): 100%
pest or weed control at 100 µg/mL ([2]; Puccinia sorghi, 168 h, 100 mg/L, read-out: Control effect (%) Corn rust): 100%
pest or weed control at 1.5625 µg/mL ([5]; Glycine max, 168 h, 1.5625 mg/L, read-out: Control effect (%) Soybean rust): 98%
pest or weed control at 3.125 µg/mL ([5]; Glycine max, 168 h, 3.1250 mg/L, read-out: Control effect (%) Soybean rust): 100%
pest or weed control at 6.25 µg/mL ([5]; Glycine max, 168 h, 6.25 mg/L, read-out: Control effect (%) Soybean rust): 100%
pest or weed control at 25 µg/mL ([5]; Glycine max, 168 h, 25 mg/L, read-out: Control effect (%) Soybean rust): 100%
pest or weed control at 100 µg/mL ([5]; Glycine max, 168 h, 100 mg/L, read-out: Control effect (%) Soybean rust): 100%
pest or weed control at 1.5625 µg/mL ([6]; Blumeria graminis, 168 h, 1.5625 mg/L, read-out: Control effect (%) Wheat powdery mildew): 30%
pest or weed control at 3.125 µg/mL ([6]; Blumeria graminis, 168 h, 3.1250 mg/L, read-out: Control effect (%) Wheat powdery mildew): 70%
pest or weed control at 6.25 µg/mL ([6]; Blumeria graminis, 168 h, 6.25 mg/L, read-out: Control effect (%) Wheat powdery mildew): 10%
pest or weed control at 25 µg/mL ([6]; Blumeria graminis, 168 h, 25 mg/L, read-out: Control effect (%) Wheat powdery mildew): 25%
pest or weed control at 100 µg/mL ([6]; Blumeria graminis, 168 h, 100 mg/L, read-out: Control effect (%) Wheat powdery mildew): 60%

OC(Cc1ccccc1Cl)(Cn1nc[nH]c1=S)C1(Cl)CC1 (stereo not drawn) [Prothioconazole]
Control effect (%) ([1]; dosage 50 mg/L): 91.15%
pest or weed control at 1 µg/mL ([4]; Cucumis sativus, 192 h, 1 mg/L, read-out: Control effect (%) Cucumber powdery mildew): 75%
pest or weed control at 2 µg/mL ([4]; Cucumis sativus, 192 h, 2 mg/L, read-out: Control effect (%) Cucumber powdery mildew): 80%
pest or weed control at 4 µg/mL ([4]; Cucumis sativus, 192 h, 4 mg/L, read-out: Control effect (%) Cucumber powdery mildew): 90%
pest or weed control at 6.25 µg/mL ([4]; Cucumis sativus, 192 h, 6.25 mg/L, read-out: Control effect (%) Cucumber powdery mildew): 85%
pest or weed control at 25 µg/mL ([4]; Cucumis sativus, 192 h, 25 mg/L, read-out: Control effect (%) Cucumber powdery mildew): 98%
pest or weed control at 100 µg/mL ([4]; Cucumis sativus, 192 h, 100 mg/L, read-out: Control effect (%) Cucumber powdery mildew): 100%
pest or weed control at 0.5 µg/mL ([5]; Glycine max, 168 h, 0.5 mg/L, read-out: Control effect (%) Soybean rust): 95%
pest or weed control at 1 µg/mL ([5]; Glycine max, 168 h, 1 mg/L, read-out: Control effect (%) Soybean rust): 100%
pest or weed control at 2 µg/mL ([5]; Glycine max, 168 h, 2 mg/L, read-out: Control effect (%) Soybean rust): 100%
pest or weed control at 4 µg/mL ([5]; Glycine max, 168 h, 4 mg/L, read-out: Control effect (%) Soybean rust): 100%
pest or weed control at 1 µg/mL ([6]; Blumeria graminis, 168 h, 1 mg/L, read-out: Control effect (%) Wheat powdery mildew): 30%
pest or weed control at 2 µg/mL ([6]; Blumeria graminis, 168 h, 2 mg/L, read-out: Control effect (%) Wheat powdery mildew): 50%
pest or weed control at 4 µg/mL ([6]; Blumeria graminis, 168 h, 4 mg/L, read-out: Control effect (%) Wheat powdery mildew): 70%
Control effect (%) Wheat powdery mildew [7]: 93%

CON(C(=O)c1cn(C)nc1C(F)F)C(C)Cc1c(Cl)cc(Cl)cc1Cl (stereo not drawn) [Pydiflumetofen]
Control effect (%) Cucumber powdery mildew [8]: 86.0%
Control effect (%) Wheat powdery mildew [7]: 91.0%

CNC(=O)/C(=N/OC)c1ccccc1CO/N=C(C)/C=C/c1c(Cl)cccc1Cl [fenaminstrobin]
control effect in field test [9]: worse
activity against wheat powdery mildew in greenhouse pot test [10]: extremely high activity
